The text below walks through data of patent US8609656B2, “Heteroarylphenylurea derivative” (Chugai Seiyaku Kabushiki Kaisha, priority 2004, dated 2013).

≈ marks a conversion by molar mass, not a printed value. Where a name gives a salt, the structure may show the parent alone.

T1 sequence (P04049 349-648 limits assumed): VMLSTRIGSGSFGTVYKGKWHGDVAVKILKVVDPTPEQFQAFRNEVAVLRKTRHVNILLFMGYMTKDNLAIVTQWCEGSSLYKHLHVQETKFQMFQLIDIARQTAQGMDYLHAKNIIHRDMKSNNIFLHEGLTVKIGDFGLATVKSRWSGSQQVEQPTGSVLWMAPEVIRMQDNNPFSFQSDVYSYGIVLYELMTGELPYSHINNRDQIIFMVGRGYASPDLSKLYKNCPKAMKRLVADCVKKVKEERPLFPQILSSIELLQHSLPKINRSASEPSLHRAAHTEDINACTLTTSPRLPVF

Test system in the first data set: not listed separately
Put plainly: Solubility to fasted state simulated intestinal fluid. It is filed as physicochemical. The conditions noted are these: fassif, kinetic from dmso stock, fasted state simulated intestinal fluid (pH 6.5), 37° C. As to the method:
Method of Measuring Solubility to Fasted State Simulated Intestinal Fluid
To a 96-well plate, 2 μL of a dimethyl sulfoxide solution of the compound relating to the present invention or that of the compound BAY 43-9006 was poured at one time, respectively, and fasted state simulated intestinal fluid (pH 6.5) was added 200 μL by 200 μL, and the plate was shaken at 37° C. for 20 hours. The solution was filtered with a membrane filter and 101 μL of the filtrate was transferred to an UV plate, and 100 μL of a mixed solution of ethanol:water=2:1 was added thereto. On the other hand, as a standard solution, 2 μL of a dimethyl sulfoxide solution was added to a solution containing 4 μL of dimethyl sulfoxide, 400 μL of ethanol and 200 μL of water and the obtained solution was transferred 101 μL by 101 μL to the UV plate and to this UV plate, the simulated fasting bile-containing intestinal juice (pH 6.5) was added 100 μL by 100 μL. The solubility was calculated by the following equation. Solubility=(absorbance of sample solution-blank)/(absorbance of standard solution-blank)×[…]
165 μL is a concentration of the standard solution.
Composition of Fasted State Simulated Intestinal Fluid
Fasted state simulated intestinal fluid was prepared in accordance with E. Galia et al., Pharm. Res., 698, 1998.
To about 90 mL of water, 161 mg of taurocholic acid, 59 mg of L-α-phosphatidylcholine, 0.39 g of potassium dihydrogenphosphate and 0.77 g of potassium chloride were added and the pH of the mixture solution […] and the mixture solution was filtered with a membrane filter.
Broadly, the solubility is the concentration that dissolves in the medium under given conditions. Regarding `CNc1ncnc2c1ncn2-c1ccc(NC(=O)Nc2ccc(CNCCN3CCCC3)c(C(F)(F)F)c2)cc1` [Table 3, Compound 15], the solubility at 20 h was 104 µg/mL (≈ 188 µM).

For `CNc1ncnc2c1ncn2-c1ccc(NC(=O)Nc2ccc(CCN(C)CCCN(C)C)c(C(F)(F)F)c2)cc1` [Table 3, Compound 38, 1-(4-{2-[(3-(Dimethylamino)propyl)methylamino]ethyl}-3-(trifluoromethyl)phenyl)-3-[4-(6-(methylamino)purin-9-yl)phenyl]urea], the solubility at 20 h was 147 µg/mL (≈ 258 µM). Compound `CNc1ncnc2c1ncn2-c1ccc(NC(=O)Nc2cc(C(=O)N3CCN(C)CC3)cc(C(F)(F)F)c2)cc1` [Table 2, Compound 39] returned a solubility at 20 h of 48 µg/mL (≈ 86.7 µM). On the same count and under the same terms, the figure for `CN(C)Cc1nc2c(N)ncnc2n1-c1ccc(NC(=O)Nc2ccc(Cl)c(C(F)(F)F)c2)cc1` [Table 2, Compound 12, 1-[4-(6-Amino-8-dimethylamino-methyl-purin-9-yl)phenyl]-3-(4-chloro-3-(trifluoromethyl)-phenyl)urea] is 265 µg/mL (≈ 525 µM).

The compound `O=C(Nc1ccc(-n2cnc3c(NCCN4CCOCC4)ncnc32)cc1)Nc1ccc(Cl)c(C(F)(F)F)c1` [Table 2, Compound 11, 1-(4-Chloro-3-(trifluoromethyl)-phenyl)-3-{4-[6-(2-morpholin-4-yl-ethylamino)purin-9-yl]-phenyl}urea] yielded a solubility at 20 h of 38 µg/mL (≈ 67.7 µM). Turning to `CNc1ncnc2c1ncn2-c1ccc(NC(=O)Nc2ccc(CCCN3CCCC3)c(C(F)(F)F)c2)cc1` [Table 2, Compound 77, 1-[4-(6-(Methylamino)purin-9-yl)phenyl]-3-[4-[3-pyrrolidin-1-yl-propyl]-3-(trifluoromethyl)phenyl]-urea], the concentration in solution (solubility at 20 h) came to 34 µg/mL (≈ 63.1 µM).

Compound `CNc1ncnc2c1nc(OC)n2-c1ccc(NC(=O)Nc2ccc(Cl)c(C(F)(F)F)c2)cc1` [Table 2, Compound 21, 1-(4-Chloro-3-(trifluoromethyl)-phenyl)-3-[4-(8-methoxy-6-(methylamino)purin-9-yl)phenyl]-urea] came in with a solubility at 20 h of 120 µg/mL (≈ 244 µM).

Regarding `CNCCOc1cccc2c1ccn2-c1ccc(NC(=O)Nc2ccc(Cl)c(C(F)(F)F)c2)cc1.Cl` [Table 1, Compound 21, 1-(4-Chloro-3-(trifluoromethyl)phenyl)-3-{4-[4-(2-methylamino-ethoxy)-indol-1-yl]phenyl}urea hydrochloride], the solubility at 20 h is 24 µg/mL. Still for that read-out and setting: the figure for `COCCOCCOCC(=O)Nc1ncnc2c1ncn2-c1ccc(NC(=O)Nc2ccc(Cl)c(C(F)(F)F)c2)cc1` [Table 1, Compound 109, N-(9-{4-[3-(4-Chloro-3-(tri-fluoromethyl)phenyl)ureido]-phenyl}-9H-purin-6-yl)-2-[2-(2-methoxyethoxy)ethoxy]acetamide] is 39 µg/mL (≈ 64.1 µM). On the same count and under the same terms, the figure for `CN1CCN(Cc2cc(NC(=O)Nc3ccc(-n4cnc5c(C(N)=O)nccc54)cc3)cc(C(F)(F)F)c2)CC1` [Table 2, Compound 33, 1-(4-{3-[3-(4-Methylpiperazin-1-ylmethyl)-5-(trifluoromethyl)-phenyl]ureido}-phenyl)-1H-imidazo[4,5-c]pyridine-4-carboxamide] is 193 µg/mL (≈ 349 µM); for `CN(C)CCN(C)c1ccc(NC(=O)Nc2ccc(-n3cnc4c(N)ncnc43)cc2)cc1C(F)(F)F` [Table 2, Compound 35, 1-[4-(6-Aminopurin-9-yl)phenyl]-3-{4-[(2-dimetylaminoethyl)-methylamino]-3-(trifluoro-methyl)phenyl]urea] it is 149 µg/mL (≈ 290 µM); for `COCCOC(=O)Nc1ncnc2c1ncn2-c1ccc(NC(=O)Nc2ccc(Cl)c(C(F)(F)F)c2)cc1` [Table 1, Compound 115, (9-{4-[3-(4-Chloro-3-(tri-fluoromethyl)phenyl)ureido]-phenyl}-9H-purin-6-yl)carbamic acid 2-methoxyethyl ester] it is 19 µg/mL (≈ 34.6 µM). As for `Cl.Nc1ncc2ncn(-c3ccc(NC(=O)Nc4ccc(Cl)c(C(F)(F)F)c4)cc3)c2n1` [Table 1, Compound 34, 1-[4-(2-Aminopurin-9-yl)phenyl]-3-(4-chloro-3-(trifluoromethyl)phenyl)urea hydrochloride], the solubility at 20 h is 34 µg/mL. For the compound `CN(C)CCNC(=O)c1nccc2c1ncn2-c1ccc(NC(=O)Nc2ccc(Cl)c(C(F)(F)F)c2)cc1` [Table 1, Compound 92, 1-(4-[3-(4-Chloro-3-(trifluoro-methyl)phenyl)ureido]phenyl}-1H-imidazo[4,5-c]pyridine-4-carboxylic acid (2-dimethyl-aminoethyl)amide], the solubility at 20 h is 76 µg/mL (≈ 139 µM). Compound `CNc1ncnc2c1ncn2-c1ccc(NC(=O)Nc2ccc(CCN(C)CCN(C)C)c(C(F)(F)F)c2)cc1` [Table 3, Compound 36, 1-(4-{2-[(2-(Dimethylamino)ethyl)-methylamino]-ethyl}-3-(trifluoromethyl)phenyl)-3-[4-(6-(methylamino)-purin-9-yl)phenyl]urea] came in with a solubility at 20 h of 107 µg/mL (≈ 193 µM). `CCc1nc2c(N)ncnc2n1-c1ccc(NC(=O)Nc2cc(CN3CCN(C)CC3)cc(C(F)(F)F)c2)cc1` [Table 2, Compound 32] showed a solubility at 20 h of 175 µg/mL (≈ 316 µM). Turning to `CNc1ncnc2c1ncn2-c1ccc(NC(=O)Nc2ccc(CCN3CCN(C(C)C)CC3)c(C(F)(F)F)c2)cc1` [Table 3, Compound 37, 1-{4-[2-(4-Isopropyl-piperazin-1-yl)ethyl]-3-(trifluoromethyl)phenyl}-3-[4-(6-(methylamino)purin-9-yl)phenyl]urea], the concentration in solution (solubility at 20 h) was 193 µg/mL (≈ 332 µM).

A further data set addresses T1, recombinant Raf-1 protein (activated type GST-Raf-1) (Homo sapiens, UniProt P04049).
T1 construct: fused on or other part: GST tag fused to Raf-1
Put plainly: RAF-1 enzyme inhibition test (33P incorporation into MEK 1 protein). In kind it is biochemical. The conditions noted are these: 10 μM ATP, GST-MEK1 substrate, 30° C., 45 minutes; read-out: Raf-1 Enzyme Inhibition, 50% Enzyme Inhibition Concentration (IC50 value). The method, then: RAF-1 Enzyme Inhibition Test
With respect to the compounds relating to the present invention and the known compound (BAY 43-9006):
[drawing 660] the Raf-1 protein inhibition activity was measured. The enzymatic reaction was measured by incorporation of ^33P-phosphoric acid into MEK 1 protein by a recombinant Raf-1 protein. The activity was measured by preparing 50 μL of a reaction solution containing a dimethyl sulfoxide solution of the compound relating to the present invention or the compound BAY 43-9006 at a varied concentration [as the final concentration, the reaction solution containing […] of TRIS hydrochloric buffer (pH 7.5), 1 mM of dithiothreitol, 100 mM of sodium chloride, 10 mM of potassium fluoride, 1 mM of sodium vanadate, 10 mM of magnesium chloride, 10 μM of adenosine triphosphate (ATP, containing ^33P-ATP of 12580Bq), 2 μg of GST-MEK1 and 25 ng of an activated type GST-Raf-1]; keeping the reaction solution at 30° C. for 45 minutes; adding 100% trichloroacetic acid to the reaction solution in an amount twice the volume of the reaction solution to precipitate a proteinous component; recovering the precipitate on a glass filter; and measuring the radioactivity of the recovered product. The 50% inhibition concentration (IC50) was obtained from the inhibition ratio to a sample-free reference.
The compound BAYT 43-9006 was prepared on the basis of the description (Example 41) of WO 00/42012.
On to `CNc1ncnc2c1ncn2-c1ccc(NC(=O)Nc2cc(OC3CCN(C)CC3)cc(C(F)(F)F)c2)cc1` [Table 2, Compound 91, 1-[4-(6-(Methylamino)purin-9-yl)phenyl]-3-[3-(1-methyl-piperidin-4-yloxy)-5-(trifluoromethyl)phenyl]-urea], for which the IC50 was 270 nM. For `C=Cc1nc2c(N)ncnc2n1-c1ccc(NC(=O)Nc2ccc(Cl)c(C(F)(F)F)c2)cc1` [Table 2, Compound 8, 1-[4-(6-Amino-8-vinylpurin-9-yl)phenyl]-3-(4-chloro-3-(tri-fluoromethyl)phenyl)urea], the IC50 came to 29 nM.

As for `CNc1ncnc2c1ncn2-c1ccc(NC(=O)Nc2cc(C(=O)NCC(O)CO)cc(C(F)(F)F)c2)cc1` (stereo not shown) [Table 2, Compound 57], the IC50 amounted to 130 nM. The same measure, in the same setting: then `CN(C)CCNC(=O)c1cc(NC(=O)Nc2ccc(-n3cnc4ncnc(N)c43)cc2)cc(C(F)(F)F)c1` [Table 3, Compound 9, 3-{3-[4-(6-Aminopurin-7-yl)phenyl]ureido}-N-(2-(dimethylamino)ethyl)-5-(trifluoromethyl)benzamide], with 85 nM; and `CNc1ncnc2c1ncn2-c1ccc(NC(=O)Nc2ccc(CCCN3CCCCC3)c(C(F)(F)F)c2)cc1` [Table 2, Compound 78, 1-[4-(6-(Methylamino)purin-9-yl)phenyl]-3-[4-[3-piperidin-1-yl-propyl]-3-(trifluoromethyl)phenyl]-urea], with 140 nM. Regarding `Nc1ncnc2c1ncn2-c1ccc(NC(=O)Nc2ccc(Cl)c(C(F)(F)F)c2)cc1` [Table 1, Compound 30, 1-[4-(6-Aminopurin-9-yl)phenyl]-3-(4-chloro-3-(trifluoromethyl)phenyl)urea hydrochloride], the IC50 worked out at 33 nM. With `CNc1ncnc2c1ncn2-c1ccc(NC(=O)Nc2cc(CCN(C)C)cc(C(F)(F)F)c2)cc1` [Table 2, Compound 71, 1-[3-(2-Dimethylamino-ethyl)-5-(trifluoromethyl)phenyl]-3-[4-(6-(methylamino)purin-9-yl)phenyl]urea], the IC50 is 190 nM. For `O=C(Nc1ccc(Cl)c(C(F)(F)F)c1)N(O)c1ccc(-n2cnc3ncncc32)cc1` [Table 1, Compound 46, 1-(4-Chloro-3-(trifluoromethyl)phenyl)-3-hydroxy-3-(4-purin-7-ylphenyl)urea], the IC50 came out at 67 nM.
